The values below come from a melting point compilation (Tetko et al.; mined from patent text by program, amines drawn as free bases though some values may be those of a salt).

Some results are limits rather than exact numbers.

By melting point is commonly meant the temperature, or range, at which the solid turns liquid. Consider `CCC(O)(c1cccc(O)c1)c1nccs1` (stereo not drawn), for which the melting point was 145 to 146 °C.
Under `COc1ccc2c(c1)C(C(=O)O)CCO2` (stereo not drawn) stands 97.4 °C; under `CSC1C(O)C(CO)OC1n1ccc(N)nc1=O` (stereo not drawn), 201 °C; under `Clc1ccc2c(c1)Cn1cccc1C(C1CCN(CCc3ccccc3)CC1)O2` (stereo not drawn), 145 to 147 °C.
Under `CC(=O)CCc1nc2c(N)nc3ccccc3c2n1CC(C)(C)O` stands 181 to 184 °C; under `COc1ccc2c(c1Cl)Sc1ccccc1N2C(C)=O`, 136 °C.
Under `ClCc1cccc2c(-c3ccc(Br)cc3)nccc12` stands 116 to 118 °C; under `COc1ccc(C2(O)CCN(CC(O)c3ccc(OCc4ccccc4)cc3)CC2)cn1` (stereo not drawn), 199 °C.
The molecule `CC(=O)C1CCC2C3CCC4CC(=O)CCC4(C)C3C(O)CC12C` (stereo not drawn) displayed a melting point of 227 to 233 °C.
Take `CCCCc1cc(CCCc2c3c(nn2CCC)c(N)nc2ccccc23)no1`: the melting point lay in the range of 132 to 133 °C.
Under `CC(CNS(C)(=O)=O)Nc1nc(Cl)ncc1Cl` (stereo not drawn) stands 160 °C.
Under `COc1cc(COc2nn(-c3ccccc3)cc2/C=C/c2nnc(C)o2)ccc1OCc1nc(-c2ccco2)oc1C` stands 186 to 187 °C; under `Cc1cc(C)c(Cc2ccc(=O)[nH]n2)c(C)c1`, 125 to 127 °C; under `N=C(NO)c1nn(-c2c(Cl)cc(C(F)(F)F)cc2Cl)c(C=O)c1SC(F)(F)F`, 72 to 75 °C.
Under `O=C(O)CCOc1cccc2ncccc12` stands 217 to 219 °C.
In turn, `COC(=O)C1CCC2C3CCC4CC5OC5CC4(C)C3C(NC(=O)OCC(Cl)(Cl)Cl)CC12C` (stereo not drawn) showed a melting point of 153 to 155 °C.
With `COc1c(N2CC(N)C2)c(F)cc2c(=O)c(C(=O)O)cn(-c3cc(N)c(F)cc3F)c12`, the melting point is greater than 290 °C.
Under `CCOP(=O)(CNc1cc(Oc2ccc(C(F)(F)F)cn2)ccc1[N+](=O)[O-])OCC` stands 74 to 76 °C.
Regarding `CS(=O)c1[nH]cc(Cc2ccccc2)c1[N+](=O)[O-]` (stereo not drawn), the melting point is 189 to 190 °C.
Under `Cc1c(-c2ccc(F)cc2)c(-c2ccc(S(N)(=O)=O)cc2)c2n1CCC2` stands 120 °C.
With `COC(=O)c1cc(CCc2cc(OC)ccc2OC)ccc1N`, the melting point was in the range of 50 to 55 °C.
Under `O=C(CCc1ccc(NC2=NCCN2)cc1)c1ccc(N2CCOCC2)cc1` stands 196 to 198 °C; under `CCC(O)(c1ccc(O)cc1)c1ccc(Br)cc1` (stereo not drawn), 161 to 162 °C; under `CC(=O)Nc1nc(C)c(CCN2CCC(=C(c3ccc(F)cc3)c3ccc(F)cc3)CC2)c(=O)n1C`, 141 °C.
The molecule `COC(=O)c1ccccc1C(=O)NNC(=S)Nc1ccccc1` had a melting point of 140 to 142 °C.
Under `N#CCC(=O)c1cccc(Oc2ccccc2)c1` stands 95 to 96 °C; under `O=c1cc(-c2ccccc2)oc2cc(OCC(O)CCCOC3CCCCO3)ccc12` (stereo not drawn), 110 to 112 °C.
Under `CN(C)c1ccc(C(c2cc(C(C)(C)C)c(O)c(C(C)(C)C)c2)N2CCCCC2)cc1` (stereo not drawn) stands 184 to 185 °C; under `O=C(Nc1cccc(-n2nc(C(F)(F)F)cc2C(F)(F)F)c1)c1cccc(Cl)c1Cl`, 119 to 121 °C; under `O=C(NC1CC1)c1cc(Nc2nc(N3CCCC3c3ccccn3)nc3ccoc23)[nH]n1` (stereo not drawn), 238 °C.
Take `COC(=O)C1(C)CN(C(=O)Nc2ccc(Cl)cn2)N=C1c1ccc(Cl)cc1` (stereo not drawn): the melting point was 130 to 146 °C.
Under `CN(Cc1cccc2c1CN(C1CCC(=O)NC1=O)C2=O)C(=O)Nc1ccc2ccccc2c1` (stereo not drawn) stands 216 to 218 °C; under `CCN(C)C(=O)Nc1c(C(=O)c2ccccc2)[nH]c2cc(Cl)ccc12`, 159 to 161 °C.
Take `O=[N+]([O-])c1cc([N+](=O)[O-])c(Nc2nc(-c3ccc(Cl)cc3Cl)cs2)c(C(F)(F)F)c1`: the melting point lay in the range of 125 to 130 °C.
As to `CC(C)C(=O)c1c(-c2ccc(F)cc2)nn2cc(C(F)(F)F)ccc12`, the melting point lay in the range of 129 to 130 °C.
On to `O=Cc1c2ccccc2c(C=O)c2c(Cl)cccc12`, for which the melting point was 186 to 189 °C.
Under `COc1cc(Nc2c(C#N)cnc3cc(Oc4ccncc4)c(OC)cc23)c(Cl)cc1Cl` stands 267 to 269 °C; under `COc1cc(OC)c(C(=O)CCCCCl)c(OC)c1`, 53 to 55 °C; under `COc1ccc(C2=NN(c3cc(C)c4c(C)nn(C)c4n3)C(=O)[C@H]3CC=CC[C@@H]23)cc1Cl` (relative stereo), 217 to 219 °C.
Under `COc1cc(-c2cccc3ccccc23)nc(N)n1` stands 160 °C; under `CCOC=Nc1ccc2nnc(-c3ncc([N+](=O)[O-])n3C)n2n1`, 134 to 135 °C; under `CCOC(=O)Nc1nc(-c2ccccc2)c(-c2nc3ccccc3c(=O)n2-c2cccc(C)c2)s1`, 261 to 263 °C.
Under `CCOC(=O)CCc1nc(-c2ccccc2)cc2ccccc12` stands 60 °C; under `CCCCC(=O)c1c(C(C)(C)C)cc(C=[N+]([O-])C(C)(C)C)cc1C(C)(C)C`, 196 to 205 °C.
With `CCCCCCCC1=CC(=O)NC1(O)CN` (stereo not drawn), the melting point was found to be 176 °C.
In the case of `COc1nc(Cl)cnc1NC(=O)OCC(C)C`, the melting point lay within 90 to 91 °C.
Under `CCOC(=O)CSc1cccc(-c2nc(=O)c3ccccc3s2)n1` stands 124 to 125 °C; under `O=C1C(=Cn2ccnc2)CSc2ccc(Cl)cc21`, 139 to 141 °C; under `CCCCC(=NNC=O)c1ccncc1`, 143 °C.
Under `CCCCN(CCO)c1cccc(O)c1` stands 45 to 47 °C.
Consider `CC(C)(C)OC(=O)[C@H]1N=CSC[C@]1(O)C(F)(F)F`, for which the melting point lay in the range of 126 to 128 °C.
Under `Cc1cccc(N2CCN(C(=O)OC(C)(C)C)CC2)c1[N+](=O)[O-]` stands 101 to 102 °C.
For the molecule `Cn1c(=O)n(Cc2ccccc2)c(=O)c2cc(I)ccc21`, the melting point is 149 to 150 °C.
Under `CCOC(=O)c1cn(CC)c2cc(-c3cc(C)no3)ccc2c1=O` stands 180 to 185 °C.
Under `COC(=O)CCCc1cc2nc(Cl)ccc2n1S(=O)(=O)c1ccc2nc(C)sc2c1` stands 117 °C.
`NC(=O)Nc1ccc(-c2c[nH]c(=O)cn2)cc1` returned a melting point greater than 300 °C.
As to `O=C(Nc1ncccn1)Nc1ccccc1C(F)(F)F`, the melting point was in the range of 224 to 225 °C.
Under `CCCCc1nnc(C(=O)N(C)Cc2ccccc2)n1Cc1ccc(-c2ccccc2C#N)cc1` stands greater than 40 °C; under `C[C@@H](N(CC(=O)O)C(=O)c1ccc(C(F)(F)F)cc1F)[C@](O)(Cn1cncn1)c1ccc(F)cc1F` (relative stereo), 191 to 192 °C; under `O=C(COC(=O)c1ccccc1Nc1ccnc2c(C(F)(F)F)cccc12)OC1CCN(Cc2ccccc2)CC1`, 99 to 100 °C.
Under `O=C(CI)Oc1cccc2c1C(=O)c1cn3c(c1C2=O)Cc1ccccc1C3` stands greater than 260 °C; under `CNCC1(C)Cc2cc(NC)c3c(c2C(c2ccccc2)=N1)CC(C)(C)O3` (stereo not drawn), 126 to 128 °C; under `Cc1ccc(C(=O)c2cc([N+](=O)[O-])ccc2Cl)cc1`, 121 °C.
Under `COc1ccc2c(c1)c1c3c(c(-c4ccccc4Cl)cc1n2CCO)C(=O)NC3=O` stands 255 to 257 °C.
The molecule `Oc1ccc2c(c1)CCNC21CCSCC1` gave a melting point of 211 to 213 °C.
Under `Cc1nn(-c2c(Cl)cc(C(F)(F)F)cc2Cl)c(N)c1C=O` stands 169 to 172 °C; under `COc1cccc(COC(=O)c2ncn3c2[C@@H]2CCN2C(=O)c2c(Cl)cccc2-3)c1`, 126 to 127 °C.
As to `CC1(C)C=Cc2c(ccc3c2C(=O)C(=O)C=C3)O1`, the melting point is 109 to 110 °C.
Molecule `O=C1C(c2ccccc2)=C2CCCCC2N1c1ccc(O)cc1` (stereo not drawn) registered a melting point of 168 °C.
`CCc1nc2c(cnn2CC)c(NC2CCOCC2)c1CNC(=O)c1cccc(C(=O)NCc2ccc(C)c(-c3cccc(CN4CCN(C)CC4)c3)c2)c1` returned a melting point of 121 to 124 °C.
Take `CCc1[nH]n(C2CCCC2)c2nc(Cc3ccncc3)nc(=O)c1-2`: the melting point fell in the range of 162 to 164 °C.
Under `COc1cc2ncc(C#N)c(Nc3ccc(C)cc3)c2cc1OC` stands 128 to 130 °C.
Under `Cc1cccc(Cl)c1-n1[nH]c(C(C)C)c2c(=O)nc(Cc3ccc(N)cc3)nc1-2` stands 206 to 207 °C.
Regarding `CCCCNc1cncc(C(=NCCc2ccccc2Cl)NC#N)c1`, the melting point is 122 °C.
Take `O=C(/C=C/c1ccc(NC(=O)Cc2cccc3ccccc23)cc1)NO`: the melting point is 222 to 224 °C.
`Cc1c(S(=O)(=O)Nc2ccc(-c3nc(CCl)cs3)cc2S(C)(=O)=O)sc2ccc(F)cc12` gave a melting point of 190 to 191 °C.
Molecule `Cc1cc(Br)c(N)cc1Cl` showed a melting point of 90 °C.
Under `O=C1C2CC(c3ccc([N+](=O)[O-])cc3)(C2)C(=O)N1Cc1ccccc1` stands 150 to 152 °C; under `Nc1nc2c(c(Nc3ccc(C(F)(F)F)cc3)n1)-c1ccccc1C2`, 229 to 231 °C.
Under `Cn1ncnc1COc1nn2c(-c3cnccn3)nnc2cc1-c1ccccc1` stands 264 °C; under `CN1CC=C(c2cccc(C(F)(F)F)c2)n2ncc(C#N)c21`, 120 to 122 °C.
Molecule `O=C(O)CNc1ccco1` gave a melting point of 195 to 199 °C.
Under `COc1ccc2c(c1N)CN(S(C)(=O)=O)CC(=O)N2` stands 232 to 233 °C; under `CC(C)Cc1c(C(=O)O)c(C(F)F)nc(C(F)(F)F)c1C(C#N)=C1CCCO1`, 192 to 193 °C.
With `Cc1c(C)c(NC(=O)CC(C)(C)C)c2c(c1C)C(c1ccc(C(C)C)cc1)CO2` (stereo not drawn), the melting point is 190 to 191 °C.
Under `CC(C)c1cc(C(C)C)c(CC(=O)NS(=O)(=O)Oc2c(C(C)C)cc([N+](=O)[O-])cc2C(C)C)c(C(C)C)c1` stands 85 to 89 °C; under `Cc1nn(-c2ccc(Cl)nn2)c(C)c1N`, 165 to 168 °C.
Under `COc1cccc(C(C)c2ccc(-c3cnn4c(O)ncnc34)cc2)c1` (stereo not drawn) stands 282 to 285 °C.
